In patent publication US20260109721A1, “IONIZABLE CATIONIC LIPIDS INCORPORATING SILICON: SYNTHESIS AND LNP FORMULATION” (priority 2023, published 2026):

Tests used:
HeLa cells [1] = test: Transfection efficiency with Luciferase (SecNLuc) mRNA, Nano-Glo assay (Method A); format: cell-based; settings: Luc mRNA, 24 h, luminescence; for Transfection 10 ng mRNA: 10 ng mRNA/well; for Transfection 50 ng mRNA: 50 ng mRNA/well; for Transfection 100 ng mRNA: 100 ng mRNA/well
Experimental: (§1) The synthesized lipids were tested in term of in vitro transfection efficacy and toxicity on HeLa cells. In order to perform the mentioned biological tests, appropriate LNPs had to be formulated from the synthesized lipids. The formulation technique was different in Method A and B. The particle size, polydispersity index (PDI) and zeta potential of resulting LNPs were determined by means of Dynamic Light Scattering technique (DLS). Prior to biological testing the encapsulation efficiency (EE) of the loaded LNPs was determined by using RiboGreen RNA assay. In case of Method A Luc mRNA while in case of Method B GFP mRNA was transfected into the cells. In parallel with the transfection experiments, toxicity of the investigated LNPs was determined, in case of Method A resazurin assay while in case of Method B MTT assay was used. Additionally, the toxicity of the lipids was investigated on HepG2 cells and IC50 values were determined.
• 1. Prepare mRNA solution by adding 100 ng mRNA (SecNLuc, #P009024, RiboPro) to 5 μl Opti-MEM • multiply by number of wells, include different concentrations and add 10% extra • a standard set-up we use is 100 ng-50 ng-10 ng mRNA/well in triplicate, which would need […] mRNA (includes 10% extra)
• 2. (If applicable) Prepare different concentrations in Opti-MEM (for instance 100/50/10 ng). • 3. Add 10 μl to each well and mix carefully by pipetting. • 4. Mix by swirling the plate horizontally at modest speed. Reverse in direction 3 times. • 5. Incubate for 24 hours (incubator).
This protocol is applied to measure luciferase activity for secreted NanoLuc and is based on the protocol by Promega (Nano-Glo® Luciferase Assay System #N1110-1150). The protocol is designed for a 384-wells plate, but volumes can be changed accordingly for other plates.
• 1. Plate cells (HeLa) in 96-well plate, grow until 80% confluent and transfect with SecNanoLuc mRNA and incubate for the desired period (24 h). • 2. After incubation, the translated protein is accumulated in the medium. Transfer medium to a new plate or tubes. • 3. Transfer 12 μl of each sample to a black-walled, clear-bottom 384-well plate • Black-walled plates are important to prevent shine-through of luminescence from other wells; alternatively, multiple wells between samples can be left empty. • 4. Set-up plate reader • 5. Prepare the desired amount of Nano-Glo® Luciferase Assay Reagent by combining one volume of Nano-Glo® Luciferase Assay Substrate with 50 volumes of Nano-Glo® Luciferase Assay Buffer: • a. composition: 100 mM MES pH 6; 1 mM EDTA; […]; 150 mM KCl; 1 mM DTT; 35 mM Thiourea; • b. briefly spin tubes containing substrate in a microcentrifuge before use. • 6. Add and mix (by pipetting) 12 μl Nano-Glo® Luciferase Assay Reagent per well • Wait approximately 3 minutes before measuring luminescence. […] Measure luminescence in plate reader using standard protocol luciferase (this includes mixing sample in plate reader)

HeLa cells [2] = test: Cell viability assessment with resazurin assay (Method A); format: cell-based; settings: human
Experimental: as §1
This protocol is used to determine the metabolic activity of cells as a measure for cell viability after exposure to potentially toxic substances. Resazurin is converted in mitochondria by reduction to resorufin, which has a much higher fluorescence at ˜600 nm compared to unconverted resazurin. A lower amount/percentage of conversion is correlated with reduced cellular metabolism and indirectly to cellular death and toxicity. Care must be taken with interpretation of the read-out, as 50% reduction in resazurin conversion may mean 50% reduction of cellular metabolism of 100% alive cells, or 50% of cells dead, and any combination in between.
• 1. Prepare 0.25 mg/ml stock solution resazurin in fresh cell culture medium. Resazurin is auto-reducing over time in solution, especially in medium, and fresh stocks should be prepared every 2-3 days. Stocks should be stored at 4° C. and protected from light. For HeLa cells, DMEM/F12 with 10% FCS is used. • 2. Dilute stock solution 10× in fresh cell culture medium to 0.025 mg/ml->ready for application on cells. For HeLa cells, DMEM/F12 with 10% FCS is used. • 3. Collect 96-well plate and replace cell-culture spent medium with 100 μl per well resazurin solution. Add some resazurin solution for background measurement in wells not containing cells. • 4. Incubate for 50 minutes in incubator at 37° C., 5% CO2, 95% RH. • 5. Transfer resazurin solution to a fresh 96- or 384-well plate. • 6. Measure in plate reader using 540/25 nm (excitation) and 610/40 nm (emission) using standard settings (PTM low/OD-1.0). • 7. Subtract the average background measurement from all samples. Set the average of the negative controls (well receiving OptiMEM only during transfection) to 100% and express all values as percentage of the control activity. Typically, at lower levels of treatment, elevation of metabolic activity is shown, whereas for toxic substances, at toxic concentrations sigmoidal curves can be obtained, with lower activity indicating higher toxicity.

Row | SMILES | Transfection 10 ng mRNA (HeLa cells [1]) | Transfection 50 ng mRNA (HeLa cells [1]) | Transfection 100 ng mRNA (HeLa cells [1]) | Cell Viability % (Average metabolic rate over all doses, Resazurin) (HeLa cells [2]) [%]
1 | CCCCC/C=C\C/C=C\CCCCCCCCOC(CCCCCCC/C=C\C/C=C\CCCCC)O[Si](C)(C)OCCCCCCN1CCN(CCCCCCO[Si](C)(C)OC(CCCCCCC/C=C\C/C=C\CCCCC)OCCCCCCCC/C=C\C/C=C\CCCCC)CC1 (stereo not shown) [Example 70, 1,4-bis((20Z,23Z)-10-((8Z,11Z)-heptadeca-8,11-dien-1-yl)-8,8-dimethyl-7,9,11-trioxa-8-silanonacosa-20,23-dien-1-yl)piperazine] | 6.46E+02 | 5.40E+03 | 2.07E+04 | 99
2 | CCCCC/C=C\C/C=C\CCCCCCCCOC(CCCCCCC/C=C\C/C=C\CCCCC)O[Si](C)(C)OCCCCCCN(CCO)CCN(CCO)CCCCCCO[Si](C)(C)OC(CCCCCCC/C=C\C/C=C\CCCCC)OCCCCCCCC/C=C\C/C=C\CCCCC (stereo not shown) [Example 71, (26Z,29Z)-16-((8Z,11Z)-heptadeca-8,11-dien-1-yl)-3-((20Z,23Z)-10-((8Z,11Z)-heptadeca-8,11-dien-1-yl)-8,8-dimethyl-7,9,11-trioxa-8-silanonacosa-20,23-dien-1-yl)-6-(2-hydroxyethyl)-14,14-dimethyl-13,15,17-trioxa-3,6-diaza-14-silapentatriaconta-26,29-dien-1-ol] | 3.24E+04 | 9.78E+05 | 5.19E+06 | 85
3 | CCCCCCCC/C=C\CCCCCCCC(OCC(CCCCCCCC)SCCCCC)O[Si](C)(C)OCCCCCCN(CCO)CCO (stereo not shown) [Example 72, (Z)-13-(heptadec-8-en-1-yl)-3-(2-hydroxyethyl)-11,11-dimethyl-16-octyl-10,12,14-trioxa-17-thia-3-aza-11-siladocosan-1-ol] | 2.05E+03 | 8.79E+04 | 3.60E+05 | 107
4 | CCCCCCCC/C=C\CCCCCCCC(OCC(CCCCCCCC)SCCCCCCCCCC)O[Si](C)(C)OCCCCCCN(CCO)CCO (stereo not shown) [Example 73, (Z)-13-(heptadec-8-en-1-yl)-3-(2-hydroxyethyl)-11,11-dimethyl-16-octyl-10,12,14-trioxa-17-thia-3-aza-11-silaheptacosan-1-ol] | 6.90E+01 | 9.88E+02 | 4.08E+03 | 107
5 | CCCCCCCC/C=C\CCCCCCCC(OCCCCCCCCCCCC1CCCCC1)O[Si](C)(C)OCCCCCCN(CCO)CCO (stereo not shown) [Example 74, (Z)-25-cyclohexyl-13-(heptadec-8-en-1-yl)-3-(2-hydroxyethyl)-11,11-dimethyl-10,12,14-trioxa-3-aza-11-silapentacosan-1-ol] | 2.47E+03 | 3.87E+04 | 1.11E+05 | 107
6 | CCCCCCCC/C=C\CCCCCCCC(OCCC(C)CCCC(C)CCCC(C)CCCC(C)C)O[Si](C)(C)OCCCCCCN(CCO)CCO (stereo not shown) [Example 75, (Z)-13-(heptadec-8-en-1-yl)-3-(2-hydroxyethyl)-11,11,17,21,25,29-hexamethyl-10,12,14-trioxa-3-aza-11-silatriacontan-1-ol] | 1.68E+03 | 2.82E+04 | 1.07E+05 | 120
7 | CCCCCCCC/C=C\CCCCCCCC(OCCCCCCCCCCCCCCC(C)C)O[Si](C)(C)OCCCCCCN(CCO)CCO (stereo not shown) [Example 76, (Z)-13-(heptadec-8-en-1-yl)-3-(2-hydroxyethyl)-11,11,29-trimethyl-10,12,14-trioxa-3-aza-11-silatriacontan-1-ol] | 3.30E+03 | 6.71E+04 | 3.34E+05 | 110
8 | CCCCC/C=C\C/C=C\CCCCCCCCOC(CCCCCCC/C=C\C/C=C\CCCCC)O[Si](C)(C)OCCCCCCN(C)[C@H](CO)Cc1ccccc1 (stereo partly drawn) [Example 77, (2S,23Z,26Z)-2-benzyl-13-((8Z,11Z)-heptadeca-8,11-dien-1-yl)-3,11,11-trimethyl-10,12,14-trioxa-3-aza-11-siladotriaconta-23,26-dien-1-ol] | 3.44E+02 | 2.55E+03 | 6.09E+03 | 112
9 | CCCCCCCC/C=C\CCCCCCCCOC(CCCCCCC/C=C\CCCCCCCC)O[Si](C)(C)OCCCCCCN(C)[C@H](CO)Cc1ccccc1 (stereo partly drawn) [Example 78, (2S,Z)-2-benzyl-13-((Z)-heptadec-8-en-1-yl)-3,11,11-trimethyl-10,12,14-trioxa-3-aza-11-siladotriacont-23-en-1-ol] | 2.45E+03 | 1.55E+04 | 3.54E+04 | 121
10 | CCCCC/C=C\C/C=C\CCCCCCCCOC(CCCCCCC/C=C\C/C=C\CCCCC)O[Si](C)(C)OCCCCCCN(C)C (stereo not shown) [Example 79, (20Z,23Z)-10-((8Z,11Z)-heptadeca-8,11-dien-1-yl)-N,N,8,8-tetramethyl-7,9,11-trioxa-8-silanonacosa-20,23-dien-1-amine] | 2.45E+03 | 8.30E+04 | 2.01E+05 | 91
11 | CCCCC/C=C\C/C=C\CCCCCCCCO[Si](C)(C)OC(CCCCCCC/C=C\C/C=C\CCCCC)OCCCN(C)C (stereo not shown) [Example 80, (17Z,20Z)-5-((8Z,11Z)-heptadeca-8,11-dien-1-yl)-N,N,7,7-tetramethyl-4,6,8-trioxa-7-silahexacosa-17,20-dien-1-amine] | 1.90E+01 | 1.25E+02 | 5.41E+02 | 99
12 | CCCCC/C=C\C/C=C\CCCCCCCCO[Si](C)(C)OC(CCCCCCC/C=C\CCCCCCCC)OCCCN(C)C (stereo not shown) [Example 81, (17Z,20Z)-5-((Z)-heptadec-8-en-1-yl)-N,N,7,7-tetramethyl-4,6,8-trioxa-7-silahexacosa-17,20-dien-1-amine] | 1.57E+02 | 5.31E+02 | 5.71E+02 | 100
13 | CCCCC/C=C\C/C=C\CCCCCCCCOC(CCCCCCC/C=C\C/C=C\CCCCC)O[Si](C)(C)O[Si](C)(C)CCCCCCN(CCO)CCO (stereo not shown) [Example 82, (24Z,27Z)-14-((8Z,11Z)-heptadeca-8,11-dien-1-yl)-3-(2-hydroxyethyl)-10,10,12,12-tetramethyl-11,13,15-trioxa-3-aza-10,12-disilatritriaconta-24,27-dien-1-ol] | 1.16E+03 | 7.26E+03 | 3.59E+04 | 97
